Substitutions are numbered along the chain they refer to. “And” between values parts separate entries of the source, which are not always exact repeats. Identical values can stand only once. “Also recorded” adds a separate entry of the source. Like-named read-outs stand apart in the source and are kept apart here.
Key:
Cathepsin C = system: Cathepsin C; design: method as in SI-Ref-4; details: ref SI-Ref-4; cited from earlier work
UCHL1 [1] = target: T1, UCHL1 (Homo sapiens, UniProt P09936); assay: Ub-Rhodamine (Ubiquitin rhodamine cleavage) assay; format: biochemical; details: 1 h preincubation; for IC50: read-out: IC50 (UCHL1)
T1 sequence (P09936 1-223): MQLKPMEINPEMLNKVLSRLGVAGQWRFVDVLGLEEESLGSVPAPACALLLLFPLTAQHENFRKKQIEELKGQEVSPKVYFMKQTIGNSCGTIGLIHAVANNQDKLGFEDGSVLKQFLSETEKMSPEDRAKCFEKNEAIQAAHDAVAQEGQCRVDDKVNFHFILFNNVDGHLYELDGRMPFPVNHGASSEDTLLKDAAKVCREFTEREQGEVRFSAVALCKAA

UCHL1 in HEK293 cells = system: T2, UCHL1 in HEK293 cells; assay: Cellular Ub-probe (HA-Ub-VS) competition, inhibition of cellular UCHL1; format: cell-based, human
T2 construct: Western blot analysis of endogenous UCHL1 labeled with HA-Ub-VS after treatment of HEK293 cells; endogenous in cells; host or cells: HEK293
Protocol: (§1) Proteins were transferred to a polyvinylidene fluoride (PVDF, only experiments in Fig. 4e and Supplementary Fig. 7e, f) or nitrocellulose (all other experiments) membrane using a Trans-Blot Turbo system (Bio-Rad, 1.3 A, 25 V, 10 min). The membranes were blocked with 5% (m/v) nonfat milk in PBS-T buffer and incubated with indicated primary antibodies (anti-UCHL1, 1:1000, Cell Signaling, D3T2E; anti-PARK7, 1:1000, Cell Signaling, D29E5; anti-Tubulin, 1:4000, Sigma, T6199; anti-Hemagglutinin, 1:1000, BioLegend, 16B12; anti-flag, 1:2000, Sigma, F3165; anti-Ubiquitin, 1:1000, Cell Signaling, P4D1; anti-Ubiquitin, 1:300, Santa Cruz, P4D1, sc-8017; anti-UCHL3, 1:1000, Proteintech, 12384-1-AP) overnight. Then the membranes were incubated with the respective secondary antibody (anti-mouse,1:5000, Sigma, NXA931; anti-rabbit, 1:5000, Sigma, GENA934) coupled to horseradish peroxidase. The chemiluminescent reaction was initiated using a Clarity Western ECL substrate (Bio-Rad) and images were taken on a ChemiDoc MP Imaging System (Bio-Rad).
(§2) The total protein concentration was adjusted to 2 mg/ml by diluting each sample with ABP lysis buffer. A final concentration of 1 µM HA-Ub-VS probe was added, followed by incubation for 30 min at 37 °C. The labeling reaction was quenched by the addition of 4x LDS sample buffer. The samples were separated via SDS-PAGE and further analyzed via western blotting as described above.

UCHL1 [2] = target: T1, UCHL1; assay: Thermal shift assay; format: binding; details: for melting temperature (Tm) of UCHL1: UCHL1 1 µM, 1 h, replicates
Protocol: Reactions were performed in white 96-well PCR plates (Bio-Rad). UCHL1 was diluted in thermal shift buffer (1x PBS, 5 mM DTT) to a 4x concentration of 4 µM. The protein was then mixed with 4x compound dissolved in thermal shift buffer in a 1:1 ratio. To each well was added 20 µL of DUB-Inhibitor solution, followed by 1 h incubation time. To each well was then added 20 µL 4x SYPRO Orange in thermal shift buffer. After sealing the plates with a transparent film, thermal denaturation (gradient: 20–90 °C; Increment: 0.3 °C, hold for 5 s before read) was performed and monitored by a Bio-Rad Connect cycler.

UCHL1 [3] = target: T1, UCHL1; assay: kobs/[I] kinetic assay; format: biochemical; details: mean ± SD of independent experiments
Protocol: Reactions were performed in 384 well plates as above. Compound (5 µL of a 4x stock in reaction buffer H supplemented with 2.5 mM TCEP; varying final concentrations ranging from 78 nM to 200 µM) and Ub-Rhodamine 110 (5 µL of a 4x stock in buffer H supplemented with 2.5 mM TCEP; final concentration: 50 nM) were mixed in a 1:1 ratio.

HEK293 cells = assay: Cell growth and viability assay (confluency, propidium iodide); format: cell-based, human
Protocol: (§3) HEK293 cells (5 × 10^3/well) or U-87 MG cells (5.5 × 10^3/well) were seeded into 96-well dishes. The following day cells were treated with the compounds at varying concentrations and propidium iodide at 20 µg/mL. The plates were immediately transferred to the Incucyte S3. Bright-field and red fluorescent images were automatically captured at 1 or 2 h intervals for 72 h with 10x magnification. The confluency of cells and the number of PI-positive cells was determined using the Incucyte masking program.

DUBs in HEK293 lysate = assay: Activity-based protein profiling in the lysate with Ub-VS competition; format: binding, human; details: 1 µM, 1 h
Protocol: Cells (4 × 10^6) were seeded in 10 cm dishes and grown to 90% confluency. The medium was aspirated, cells were washed with ice-cold PBS, treated with 600 µL ABP lysis buffer (1% (v/v) IGEPAL, 50 mM Tris, 150 mM NaCl, 5% glycerol, pH 8, cOmplete protease inhibitor cocktail), and incubated on ice for 15 min. The lysed cells were scrapped off the dish, cleared by centrifugation, and the protein concentration was determined via a Bradford assay. […] Each compound was diluted to a 2x concentration in PBS buffer from a 10 mM stock in DMSO (final concentration: 1 µM). Then each compound dilution or a DMSO dilution was mixed with cell lysate and incubated for one hour at room temperature. […] Samples were resolved by SDS-PAGE using a 4–12% Bis-Tris gel (Invitrogen, NuPAGE) with MES SDS running buffer for 50 min at 180 V. Fluorescence was read out using the Alexa564 (λex/em 520–545/577–613 nm, for TAMRA) and Alexa680 (λex/em 650–675/700–730 nm, for the PageRuler Prestained NIR Protein Ladder (Thermo Scientific)) channels on a ChemiDoc MP Imaging System (Bio-Rad).

UCHL1 [4] = target: T1, UCHL1; assay: Identification of probe-labeled proteins with mass spectrometry (pulldown enrichment); details: HEK293 cells; 1 µM; 24 h
Protocol: Cells were cultured, treated with a compound, and lysed as described above. The cell lysate was diluted to a protein concentration of 2 mg/mL with ABP lysis buffer. 1 µL of each click reagent (see above) were added to each sample, followed by an incubation period of one hour at room temperature with protection from light. The sample volume was adjusted to 1000 µL with PBS and 30 µL of a NeutrAvidin (Thermo Fisher) bead slurry (prewashed 3x with PBS) were added to each sample. The samples were incubated for one hour to overnight on a rotator at 15 rpm at 4 °C. Beads were pelleted by centrifugation, the supernatant was discarded, and the beads were washed six times (1x with ½x lysis buffer, followed by five washes with PBS). After removing the washing solution completely, the beads were subjected to reduction with dithiothreitol (1 mM), alkylation with chloroacetamide (5 mM) and on-bead digestion with first LysC (Serva Biotech, 1 h, 37 °C), followed by trypsin (Sigma Aldrich, 1 h, overnight). Tryptic peptides were desalted with C18 StageTips and analyzed by nano-HPLC-MS/MS.
An Ultimate 3000 RSLC nano-HPLC system and a Hybrid-Orbitrap mass spectrometer (Q Exactive Plus) equipped with a nano-spray source (Thermo Fisher Scientific) was used. The protein fragments were enriched on a C18 PepMap 100 column (5 μm, 100 Å, 300 μm ID * 5 mm, Dionex) using 0.1% TFA, at a flow rate of 30 μL/min, for 5 min and separated on a C18 PepMap 100 column (3 μm, 100 Å, 75 μm ID × 50 cm) using a linear gradient (5–30% ACN/H2O + 0.1% formic acid over 90 min) with a flow rate of 300 nL/min. […] Signals in the mass range of m/z 300 to 1650 were acquired at a resolution of 70,000 for the full scan, followed by ten high-energy collision-dissociation (HCD) MS/MS scans of the most intense at least doubly charged ions at a resolution of 17,500. Proteins were relatively quantified by using MaxQuant[60] v.2.0.3.1, including the Andromeda search algorithm and searching the Homo sapiens reference proteome of the UniProt database. Briefly, an MS/MS ion search was performed for enzymatic trypsin cleavage, allowing two missed cleavages. Carbamidomethylation was set as a fixed protein modification, and oxidation of methionine and acetylation of the N-terminus were set as variable modifications. The mass accuracy was set to 20 parts per million (ppm) for the first search and to 4.5 ppm for the second search. The false discovery rates for peptide and protein identification were set to 0.01. Only proteins for which at least two peptides were quantified were chosen for further validation. Relative quantification of proteins was performed by using the label-free quantification algorithm implemented in MaxQuant. Statistical data analysis of pulldown samples was performed using Perseus[61] v.1.6.15.0, including proteins which were identified in at least four of the five biological replicates which were used per condition. Label-free quantification (LFQ) intensities were log-transformed (log2); replicate samples were grouped together. Pairwise comparisons of groups were performed separately. Missing values were imputed using small normally distributed values (width 0.3, downshift 1.8) and a two-sided t-test (s0 = 5, FDR = 0.001) was performed.

HEK293 cells proteome = assay: Identification of probe-labeled proteins with mass spectrometry (pulldown, other proteins); details: 1 µM, vs DMSO
Protocol: Cells were cultured, treated with a compound, and lysed as described above. The cell lysate was diluted to a protein concentration of 2 mg/mL with ABP lysis buffer. 1 µL of each click reagent (see above) were added to each sample, followed by an incubation period of one hour at room temperature with protection from light. The sample volume was adjusted to 1000 µL with PBS and 30 µL of a NeutrAvidin (Thermo Fisher) bead slurry (prewashed 3x with PBS) were added to each sample. The samples were incubated for one hour to overnight on a rotator at 15 rpm at 4 °C. […] Tryptic peptides were desalted with C18 StageTips and analyzed by nano-HPLC-MS/MS.
An Ultimate 3000 RSLC nano-HPLC system and a Hybrid-Orbitrap mass spectrometer (Q Exactive Plus) equipped with a nano-spray source (Thermo Fisher Scientific) was used. […] Proteins were relatively quantified by using MaxQuant[60] v.2.0.3.1, including the Andromeda search algorithm and searching the Homo sapiens reference proteome of the UniProt database. […] Only proteins for which at least two peptides were quantified were chosen for further validation. Relative quantification of proteins was performed by using the label-free quantification algorithm implemented in MaxQuant. […] Label-free quantification (LFQ) intensities were log-transformed (log2); replicate samples were grouped together. […]

[5] = system: monoubiquitin in U-87 MG cells; assay: Quantification of monoubiquitin levels; format: cell-based, human; details: 48 h, independent experiments
Protocol: U-87 MG cells (5 × 10^5/well) were seeded in six-well plates and cultivated for 8 h. Cells were transfected with siRNA as described above. On the next day, cells were cultured in fresh media supplemented with either compounds (final conc. 5 µM) or DMSO, where indicated, for a further 48 h. The media was changed every 24 h to a fresh medium supplemented with compounds (final conc. 5 µM) or DMSO. […] Monoubiquitin band intensities were first normalized to α-tubulin or total protein (Fast Green FCF, TCI) and subsequently normalized to the intensities of monoubiquitin bands in the sample treated with DMSO or siScr (where no DMSO was used) which was set to “1”.

U-87 MG cells = assay: Cell growth and viability assay (confluency, propidium iodide); format: cell-based, human; details: up to 5 µM, up to 72 h
Protocol: as §3

UCHL3 A11I = target: T3, UCHL3 A11I (Homo sapiens, UniProt P15374, A11I); assay: Ub-Rhodamine (Ubiquitin rhodamine cleavage) assay; format: biochemical; details: Supplementary Fig. 10d; 5 mM DTT in buffer H; read-out: IC50 (UCHL3 A11I)
T3 sequence (P15374 1-230 A11I): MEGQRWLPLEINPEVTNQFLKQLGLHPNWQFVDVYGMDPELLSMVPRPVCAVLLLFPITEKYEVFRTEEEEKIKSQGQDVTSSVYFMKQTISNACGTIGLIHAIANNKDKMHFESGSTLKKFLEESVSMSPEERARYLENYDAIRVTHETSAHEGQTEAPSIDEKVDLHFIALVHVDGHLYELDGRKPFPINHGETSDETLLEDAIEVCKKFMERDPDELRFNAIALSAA

UCHL3 = target: T4, UCHL3 (Homo sapiens, UniProt P15374); assay: Ub-Rhodamine (Ubiquitin rhodamine cleavage) assay; format: biochemical; details: Supplementary Fig. 10d; 5 mM DTT in buffer H; read-out: IC50 (UCHL3 wt)
T4 sequence (P15374 1-230): T3 sequence (P15374 1-230 A11I) with I11A

UCHL3 A11I+L168F = target: T5, UCHL3 A11I+L168F (Homo sapiens, UniProt P15374, A11I/L168F); assay: Ub-Rhodamine (Ubiquitin rhodamine cleavage) assay; format: biochemical; details: Supplementary Fig. 10d; 5 mM DTT in buffer H; read-out: IC50 (UCHL3 A11I+L168F)
T5 sequence (P15374 1-230 A11I/L168F): T3 sequence (P15374 1-230 A11I) with L168F

UCHL3 L168F = target: T6, UCHL3 L168F (Homo sapiens, UniProt P15374, L168F); assay: Ub-Rhodamine (Ubiquitin rhodamine cleavage) assay; format: biochemical; details: Supplementary Fig. 10d; 5 mM DTT in buffer H; read-out: IC50 (UCHL3 L168F)
T6 sequence (P15374 1-230 L168F): T3 sequence (P15374 1-230 A11I) with I11A, L168F

UCHL1 in U-87 MG cells = system: T7, UCHL1 in U-87 MG cells; assay: Cellular Ub-probe (HA-Ub-VS) competition, inhibition of cellular UCHL1; format: cell-based, human; details: 1 or 24 h
T7 construct: Western blot analysis of endogenous UCHL1 labeled with HA-Ub-VS after treatment of U-87 MG cells; endogenous in cells; host or cells: U-87 MG
Protocol: as §1, §2

With N#Cc1ccc(-c2ccc(C[C@@H](C#N)NC(=O)C3(N)CCOCC3)cc2)cc1 [AZD5248] as the molecule, how does the IC50 (Cathepsin C) read?
Its IC50 is 0.0029 µM.

Which results are given for C#CCn1ccc2c(-c3cccc4c3CCN4C(=O)[C@@H]3CCCN3C#N)ccnc21 [CG173]?
IC50 (UCHL1 [1]; mean ± SD of independent experiments): 0.043 ± 0.019 µM; inhibition of cellular UCHL1 (UCHL1 in HEK293 cells; after 1 h (Supplementary Fig. 5f)): very low degree of inhibition; inhibition of cellular UCHL1 (UCHL1 in HEK293 cells; after 24 h incubation (Supplementary Fig. 5f)): no inhibition of cellular UCHL1 at all; protein stabilization of UCHL1 compared with GK13S (UCHL1 [2]; Supplementary Fig. 5c): reduced protein stabilization; kinact/KI (UCHL1 [3]): 597 ± 209 M⁻¹ s⁻¹; apoptosis and growth arrest (HEK293 cells; 1.3 and 5 µM): strong induction of apoptosis and growth arrest; DUB engagement (Ub-VS competitive labeling) (DUBs in HEK293 lysate): Ubiquitin-probe competitive band of approx. 30 kDa

Which results are given for C#CCCCNC(=O)[C@H]1CCN(C#N)C1 [GK16S]?
enrichment factor of UCHL1 (log2, vs DMSO) (UCHL1 [4]): 3; IC50 (UCHL1 [1]): > 100 µM; remaining activity at 0.00050402 µM (UCHL1 [1]; compound 0.50402 nM, read-out: UCHL1 activity, data point mean): 90.8%; remaining activity at 0.00151206 µM (UCHL1 [1]; compound 1.51206 nM, read-out: UCHL1 activity, data point mean): 89.7%; remaining activity at 0.00453618 µM (UCHL1 [1]; compound 4.53618 nM, read-out: UCHL1 activity, data point mean): 99.1%; remaining activity at 0.0136085 µM (UCHL1 [1]; compound 13.6085 nM, read-out: UCHL1 activity, data point mean): 96.8%; remaining activity at 0.0408257 µM (UCHL1 [1]; compound 40.8257 nM, read-out: UCHL1 activity, data point mean): 83.7%; remaining activity at 0.122477 µM (UCHL1 [1]; compound 122.477 nM, read-out: UCHL1 activity, data point mean): 87.4%; remaining activity at 0.367431 µM (UCHL1 [1]; compound 367.431 nM, read-out: UCHL1 activity, data point mean): 90.4%; remaining activity at 1.10229 µM (UCHL1 [1]; compound 1102.29 nM, read-out: UCHL1 activity, data point mean): 91.3%; remaining activity at 3.30688 µM (UCHL1 [1]; compound 3306.88 nM, read-out: UCHL1 activity, data point mean): 90.9%; remaining activity at 30.581 µM (UCHL1 [1]; compound 30581 nM, read-out: UCHL1 activity, data point mean): 81%; remaining activity at 100 µM (UCHL1 [1]; compound 100000 nM, read-out: UCHL1 activity, data point mean): 68.2%; inhibition of cellular UCHL1 (UCHL1 in HEK293 cells; HEK293 cells, 24 h): did not equate to a detectable inhibition; also recorded: does not inhibit cellular UCHL1; Fold change log2, protein 02. Sep (HEK293 cells proteome): 0.4147; Fold change log2, protein 07. Sep (HEK293 cells proteome): 0.472; melting temperature (Tm) of UCHL1 (UCHL1 [2]; compound 1.25 µM): 53.4 and 53.1; melting temperature (Tm) of UCHL1 (UCHL1 [2]; compound 2.5 µM): 53.4 and 53.1; melting temperature (Tm) of UCHL1 (UCHL1 [2]; compound 5 µM): 53.1 and 53.4; monoubiquitin intensity normalized to DMSO (= 1) ([5]; siSCr, 5 µM): 1.022 and 1.336 and 1.231 and 0.8547; monoubiquitin intensity normalized to DMSO (= 1) ([5]; siUCHL3, 5 µM): 1.049 and 0.9228 and 0.9331 and 0.7832 and 1.05 and 0.7905; growth arrest and apoptosis (HEK293 cells; up to 5 µM, up to 72 h): neither GK13S nor GK16S showed growth arrest nor apoptosis; toxicity (cell growth and viability) (U-87 MG cells): nontoxic

Which IC50 (UCHL3 A11I) does the source give for NC(=O)CI [IAA, iodoacetamide, reference compound] here?
The IC50 was 1900 ± 100 µM.

And the IC50 (UCHL3)?
The IC50 was 1700 ± 100 µM.

What about the IC50 (UCHL3 A11I+L168F) of the same molecule?
Its IC50 is 2200 ± 100 µM.

What about the IC50 (UCHL3 L168F) of the same molecule?
The IC50 was 2000 ± 100 µM.

For CC(=O)O/N=C1\C(=O)N(Cc2cc(Cl)ccc2Cl)c2ccc(Cl)cc21 [LDN-57444, reference compound], which “inhibition of cellular UCHL1” value (UCHL1 in U-87 MG cells) is on record?
Its value is “does not lead to inhibition of cellular UCHL1”.

Source: PMC9549030, “Structural basis for specific inhibition of the deubiquitinase UCHL1” (Nature Communications, 2022)
